In article PMC10120535, “Identification of new 4-(6-oxopyridazin-1-yl)benzenesulfonamides as multi-target anti-inflammatory agents targeting carbonic anhydrase, COX-2 and 5-LOX enzymes: synthesis, biological evaluations and modelling insights” (Journal of Enzyme Inhibition and Medicinal Chemistry, 2023):

How the values were obtained:
gastric tissue of rats = assay: acute ulcerogenic test, histopathology of gastric tissue; type: in vivo; details: fasted rat stomach, H & E stain
Text: (§1) The experimental procedures adopted to perform the acetic acid-induced writhing assay for the analgesic activities,[45] Paw edoema assay for the anti-inflammatory activities,[46] as well as the acute ulcerogenic test[47] have been carried out as described previously.

mice = assay: acetic acid writhing test (analgesic activity); type: in vivo; details: for Number of writhing (20 min) (Mean ± SD): n = 5, control 40 ± 2.9
Text: as §1

rat paw edoema = assay: carrageen-induced rat paw edoema assay (anti-inflammatory activity); type: in vivo; parameters: Anti-inflammatory activity (% inhibition of edoema) 3 h: concentration or dose not given beside the values; details: for FIF% change in paw height (Mean ± SD) 0 h / FIF% change in paw height (Mean ± SD) 1 h / FIF% change in paw height (Mean ± SD) 2 h / FIF% change in paw height (Mean ± SD) 3 h: n = 5
Text: as §1

COX-1 = target: T1, COX-1 (Ovis aries, UniProt P05979); assay: COX Inhibitor screening ELISA assay kit, COX-1
T1 sequence (P05979 25-600): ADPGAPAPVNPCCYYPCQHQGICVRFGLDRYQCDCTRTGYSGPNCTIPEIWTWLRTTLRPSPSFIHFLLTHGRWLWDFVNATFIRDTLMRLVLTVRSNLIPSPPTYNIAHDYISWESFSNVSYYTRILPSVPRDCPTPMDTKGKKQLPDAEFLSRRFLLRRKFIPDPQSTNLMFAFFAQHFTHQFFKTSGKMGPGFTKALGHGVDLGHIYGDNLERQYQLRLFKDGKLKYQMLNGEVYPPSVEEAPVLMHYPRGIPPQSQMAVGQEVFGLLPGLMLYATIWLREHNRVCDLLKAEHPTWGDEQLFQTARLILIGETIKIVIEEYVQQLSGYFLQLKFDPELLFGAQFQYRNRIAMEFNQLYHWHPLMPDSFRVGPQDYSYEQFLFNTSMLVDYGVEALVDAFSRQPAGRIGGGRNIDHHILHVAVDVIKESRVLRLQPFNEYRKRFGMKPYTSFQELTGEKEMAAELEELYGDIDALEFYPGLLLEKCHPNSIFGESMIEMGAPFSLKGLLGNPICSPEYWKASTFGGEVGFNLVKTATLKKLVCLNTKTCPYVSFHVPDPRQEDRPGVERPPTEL

COX-2 = target: T2, COX-2 (Homo sapiens, UniProt P35354); assay: COX Inhibitor screening ELISA assay kit, COX-2
T2 sequence (P35354 18-604): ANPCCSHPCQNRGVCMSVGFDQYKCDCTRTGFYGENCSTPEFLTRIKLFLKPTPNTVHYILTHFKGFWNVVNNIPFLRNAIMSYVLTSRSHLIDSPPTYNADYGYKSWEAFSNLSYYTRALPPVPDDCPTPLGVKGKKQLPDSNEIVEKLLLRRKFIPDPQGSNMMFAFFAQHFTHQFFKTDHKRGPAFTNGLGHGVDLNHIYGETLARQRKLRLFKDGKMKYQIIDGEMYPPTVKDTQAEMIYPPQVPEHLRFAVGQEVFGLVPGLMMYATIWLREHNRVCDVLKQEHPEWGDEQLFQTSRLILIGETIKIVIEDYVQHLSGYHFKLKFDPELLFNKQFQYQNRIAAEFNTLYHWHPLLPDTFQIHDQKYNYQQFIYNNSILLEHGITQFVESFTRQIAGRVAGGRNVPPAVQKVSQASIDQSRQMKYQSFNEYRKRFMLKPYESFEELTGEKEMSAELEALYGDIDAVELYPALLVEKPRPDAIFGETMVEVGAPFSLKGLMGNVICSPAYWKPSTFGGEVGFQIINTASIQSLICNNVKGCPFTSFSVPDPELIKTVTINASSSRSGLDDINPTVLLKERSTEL

5-LOX = assay: LOX inhibitory screening assay kit; type: biochemical; details: mean from 3 different assays
TNF-α = assay: serum TNF-α level by ELISA after paw edoema test; type: in vivo, rat; details: compared to the positive control group, n = 5
Text: (§2) ELISA assays were used to assess the serum level for the inflammatory mediators TNF-α (Kit Cat. No MBS355371, MyBioSource, USA), and IL-1β (Kit Cat. No MBS8825017, MyBioSource, USA) based on the manufacture instructions.[54]

IL-1β = assay: serum IL-1β level by ELISA after paw edoema test; type: in vivo, rat; details: compared to the positive control group, n = 5
Text: as §2

For `Cc1ccc(-c2cc(C(F)(F)F)nn2-c2ccc(S(N)(=O)=O)cc2)cc1` [Celecoxib, reference compound], the “Ulcerogenic effect on gastric tissue (histopathological examination)” value (gastric tissue of rats) was “normal texture”, the “Analgesic activity (% protection)” value (mice) was 60.0% and the “Number of writhing (20 min) (Mean ± SD)” value (mice) was 16 ± 0.9. For the same compound, the “FIF% change in paw height (Mean ± SD) 0 h” value (rat paw edoema) was 0.5 ± 0.07%, the “FIF% change in paw height (Mean ± SD) 1 h” value (rat paw edoema) was 0.44 ± 0.09% and the “FIF% change in paw height (Mean ± SD) 2 h” value (rat paw edoema) was 0.52 ± 0.04%. For the same compound, the “Anti-inflammatory activity (% inhibition of edoema) 3 h” value (rat paw edoema) was 38.5% and the “FIF% change in paw height (Mean ± SD) 3 h” value (rat paw edoema) was 0.48 ± 0.04 %.
For `NS(=O)(=O)c1ccc(-n2nc(O)ccc2=O)cc1` [Compound 3, 4–(3-Hydroxy-6-oxopyridazin-1(6H)-yl)benzenesulfonamide], the IC50 (COX-1) was 11.5 µM, the IC50 (COX-2) was 0.07 µM and the IC50 (5-LOX) was 2 µM.
For `NS(=O)(=O)c1ccc(-n2nc(OCc3ccccc3)ccc2=O)cc1` [Compound 5a, 4–(3-(Benzyloxy)-6-oxopyridazin-1(6H)-yl)benzenesulfonamide], the IC50 (COX-1) was 5 µM, the IC50 (COX-2) was 0.11 µM and the IC50 (5-LOX) was 7 µM.
`NS(=O)(=O)c1ccc(-n2nc(OCc3ccc([N+](=O)[O-])cc3)ccc2=O)cc1` [Compound 5b, 4–(3-((4-Nitrobenzyl)oxy)-6-oxopyridazin-1(6H)-yl)benzenesulfonamide] gave an IC50 (COX-1) of 9.5 µM, an IC50 (COX-2) of 0.14 µM and an IC50 (5-LOX) of 5 µM.
For `N#Cc1ccc(COc2ccc(=O)n(-c3ccc(S(N)(=O)=O)cc3)n2)cc1` [Compound 5c, 4–(3-((4-Cyanobenzyl)oxy)-6-oxopyridazin-1(6H)-yl)benzenesulfonamide], the IC50 (COX-1) was 6.5 µM, the IC50 (COX-2) was 0.07 µM and the IC50 (5-LOX) was 7 µM.
`CS(=O)(=O)Oc1ccc(=O)n(-c2ccc(S(N)(=O)=O)cc2)n1` [Compound 7a, 6-Oxo-1–(4-sulfamoylphenyl)-1,6-dihydropyridazin-3-yl methanesulfonate] was tested, and the “Ulcerogenic effect on gastric tissue (histopathological examination)” value (gastric tissue of rats) was “normal texture”, the IC50 (COX-1) was 10.4 µM and the “Analgesic activity (% protection)” value (mice) was 67.5%. The “Serum level of TNF-α” value (TNF-α) was “significantly lowered”, the “Serum level of IL-1β” value (IL-1β) was “significantly lowered” and the IC50 (5-LOX) was 3 µM. The “FIF% change in paw height (Mean ± SD) 0 h” value (rat paw edoema) was 0.52 ± 0.04%, the “FIF% change in paw height (Mean ± SD) 1 h” value (rat paw edoema) was 0.46 ± 0.09% and the “FIF% change in paw height (Mean ± SD) 2 h” value (rat paw edoema) was 0.44 ± 0.05%. For the same compound, the “Anti-inflammatory activity (% inhibition of edoema) 3 h” value (rat paw edoema) was 56% and the “FIF% change in paw height (Mean ± SD) 3 h” value (rat paw edoema) was 0.34 ± 0.05 %.
With `CCS(=O)(=O)Oc1ccc(=O)n(-c2ccc(S(N)(=O)=O)cc2)n1` [Compound 7b, 6-Oxo-1–(4-sulfamoylphenyl)-1,6-dihydropyridazin-3-yl ethanesulfonate] the “Ulcerogenic effect on gastric tissue (histopathological examination)” value (gastric tissue of rats) was “mild inflammation”, the IC50 (COX-1) was 12.6 µM and the IC50 (COX-2) was 0.06 µM. For the same compound, the “Analgesic activity (% protection)” value (mice) was 65.0%, the “Serum level of TNF-α” value (TNF-α) was “significantly lowered” and the “Serum level of IL-1β” value (IL-1β) was “significantly lowered”. For the same compound, the IC50 (5-LOX) was 2.5 µM, the “FIF% change in paw height (Mean ± SD) 0 h” value (rat paw edoema) was 0.5 ± 0.07% and the “FIF% change in paw height (Mean ± SD) 1 h” value (rat paw edoema) was 0.44 ± 0.09%. The “FIF% change in paw height (Mean ± SD) 2 h” value (rat paw edoema) was 0.58 ± 0.04%, the “Anti-inflammatory activity (% inhibition of edoema) 3 h” value (rat paw edoema) was 38.5% and the “FIF% change in paw height (Mean ± SD) 3 h” value (rat paw edoema) was 0.48 ± 0.03 %.
With `NS(=O)(=O)c1ccc(-n2nc(OS(=O)(=O)c3ccccc3)ccc2=O)cc1` [Compound 7c, 6-Oxo-1–(4-sulfamoylphenyl)-1,6-dihydropyridazin-3-yl benzenesulfonate] the IC50 (COX-1) was 8.4 µM, the IC50 (COX-2) was 0.08 µM and the IC50 (5-LOX) was 4 µM.
For `Cc1ccc(S(=O)(=O)Oc2ccc(=O)n(-c3ccc(S(N)(=O)=O)cc3)n2)cc1` [Compound 7d, 6-Oxo-1–(4-sulfamoylphenyl)-1,6-dihydropyridazin-3-yl 4-methylbenzenesulfonate], the IC50 (COX-1) was 8.4 µM, the IC50 (COX-2) was 0.08 µM and the IC50 (5-LOX) was 3.5 µM.
`COc1ccc(S(=O)(=O)Oc2ccc(=O)n(-c3ccc(S(N)(=O)=O)cc3)n2)cc1` [Compound 7e, 6-Oxo-1–(4-sulfamoylphenyl)-1,6-dihydropyridazin-3-yl 4-methoxybenzenesulfonate] was tested, and the IC50 (COX-1) was 6.5 µM, the IC50 (COX-2) was 0.09 µM and the IC50 (5-LOX) was 5 µM.
`NS(=O)(=O)c1ccc(-n2nc(OS(=O)(=O)c3ccc(F)cc3)ccc2=O)cc1` [Compound 7f, 6-Oxo-1–(4-sulfamoylphenyl)-1,6-dihydropyridazin-3-yl 4-fluorobenzenesulfonate] gave an IC50 (COX-1) of 8.5 µM, an IC50 (COX-2) of 0.11 µM and an IC50 (5-LOX) of 6.5 µM.
In the case of `O=C(O)Cc1ccccc1Nc1c(Cl)cccc1Cl` [Diclofenac, reference compound], the “Ulcerogenic effect on gastric tissue (histopathological examination)” value (gastric tissue of rats) is reported as “inflammation and damage to the layers of the stomach”, the “Analgesic activity (% protection)” value (mice) is reported as 70.0% and the “Number of writhing (20 min) (Mean ± SD)” value (mice) is reported as 12 ± 1.9. The “FIF% change in paw height (Mean ± SD) 0 h” value (rat paw edoema) was 0.52 ± 0.04%, the “FIF% change in paw height (Mean ± SD) 1 h” value (rat paw edoema) was 0.28 ± 0.04% and the “FIF% change in paw height (Mean ± SD) 2 h” value (rat paw edoema) was 0.32 ± 0.04%. For the same compound, the “Anti-inflammatory activity (% inhibition of edoema) 3 h” value (rat paw edoema) was 59% and the “FIF% change in paw height (Mean ± SD) 3 h” value (rat paw edoema) was 0.32 ± 0.04 %.
